Experimental data published in publication PMC7933130 (Nature, 2021).

Target: NaCT (Homo sapiens, UniProt Q86YT5)
Test: cryo-EM structure at […] Å
Type: binding

Sequence of NaCT (Q86YT5 whole entry): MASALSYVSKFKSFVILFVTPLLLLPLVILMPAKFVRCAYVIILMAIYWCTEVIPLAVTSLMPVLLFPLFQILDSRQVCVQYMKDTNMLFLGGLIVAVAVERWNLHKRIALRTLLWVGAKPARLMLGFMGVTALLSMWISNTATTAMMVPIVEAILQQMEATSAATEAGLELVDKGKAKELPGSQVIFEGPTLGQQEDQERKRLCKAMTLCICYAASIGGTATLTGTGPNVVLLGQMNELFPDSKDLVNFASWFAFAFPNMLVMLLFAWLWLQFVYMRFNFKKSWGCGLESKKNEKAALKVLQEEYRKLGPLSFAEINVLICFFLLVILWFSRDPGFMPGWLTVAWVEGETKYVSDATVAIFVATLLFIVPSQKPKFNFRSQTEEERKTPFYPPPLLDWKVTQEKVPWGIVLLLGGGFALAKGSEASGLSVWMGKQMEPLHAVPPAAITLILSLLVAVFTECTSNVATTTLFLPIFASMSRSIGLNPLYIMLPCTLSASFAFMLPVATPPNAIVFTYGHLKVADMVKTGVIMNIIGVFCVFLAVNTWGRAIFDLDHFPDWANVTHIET

O=C(O)CC(O)(CC(=O)O)C(=O)O [citrate]
Kd: 148 ± 28 µM
